{"source": "patent US10011573B2", "about": "“Human androgen receptor DNA-binding domain (DBD) compounds as therapeutics and methods for their use” (The University of British Columbia, priority 2014, dated 2018)", "key": {"[1]": {"biological_target": "T1, ER-α (Homo sapiens, UniProt P03372)", "T1 construct": "endogenous in cells; host or cells: MCF-7 with ERE-luciferase reporter", "assay": "Estrogen-response element-luciferase assay in MCF-7 cells", "format": "cell-based", "description": "(§1) 9. Transient Transfection: The PC3/MCF7 cells were seeded into a 96-well plate (2,000 cells/well). After 24 hrs, the wild-type AR (50 ng/well)/AR mutants and AR3TK-luciferase plasmids (1:3) were co-transfected into PC3 cells or ERE-luciferase (50 ng/well) was transfected into MCF7 cells using transfection reagent TT20. 24 hrs after the transfection, the cells were treated with the compounds at various concentrations. And 24 hrs later, the cells were lysed and the reading was taken using a luminometer."}, "[2]": {"test_system": "PSA", "assay": "PSA measurements, LNCaP cells, 1 nM R1881, 2 days", "format": "cell-based, human", "description": "Following the incubation period, 150 μl of the media was taken from each well, and PSA levels were quantified using a Cobas e411 analyzer (Roche Applied Science™) according to the manufacturer's instructions. The same instrument was used to analyze serum PSA from mice during the in vivo analysis."}, "[3]": {"test_system": "FKBP5", "assay": "Western blot FKBP5 protein in R1-D567 cells", "format": "cell-based, human", "description": "(§2) Cell lysates (40 μl) from luciferase assays (96-well plate) were separated on a 10% SDS-polyacrylamide mini gel. Protein was transferred to methanol-charged PVDF membranes and probed with anti-AR441 (mouse, Sigma™) monoclonal primary antibody. Blots were also probed with polyclonal anti-actin (rabbit, Sigma™) to show equal loading and polyclonal anti-PARP/anti-cleaved PARP (rabbit, Sigma™) to test for induction of apoptosis. Lysates from CWR-R1 cells were additionally probed with polyclonal anti-FKBP5 (rabbit, Sigma™) following 2 days of incubation with compounds."}, "[4]": {"test_system": "PSA", "assay": "Prostate-specific antigen (PSA) assay, secreted PSA from the eGFP assay plates", "format": "cell-based, human", "details": "Homo sapiens", "description": "3. Prostate-specific antigen (PSA) assay: The evaluation of PSA levels secreted into the media was performed in parallel to the eGFP assay using the same plates. After cells were incubated for 3 days, 150 μl of the media was taken from each well, and added to 150 μl of PBS."}, "[5]": {"test_system": "FKBP5", "assay": "Western blot FKBP5 protein in R1-AD1 cells", "format": "cell-based, human", "description": "as §2"}, "[6]": {"biological_target": "T2, AR hormone binding site (recombinant wild type LBD) (Rattus norvegicus, UniProt P15207)", "T2 construct": "displace DHT from the ABS site of recombinant wild type LBD", "T2 sequence (P15207 651-882 limits assumed)": "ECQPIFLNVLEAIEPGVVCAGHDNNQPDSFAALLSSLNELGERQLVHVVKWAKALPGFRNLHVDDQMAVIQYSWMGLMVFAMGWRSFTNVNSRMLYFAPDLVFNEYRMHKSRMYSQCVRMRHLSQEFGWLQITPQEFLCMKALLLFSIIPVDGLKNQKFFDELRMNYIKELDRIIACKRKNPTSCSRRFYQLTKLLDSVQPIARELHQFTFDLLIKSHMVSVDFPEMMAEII", "assay": "Androgen displacement assay (Polar Screen Androgen Receptor Competitor Green Assay Kit)", "details": "fluorescence polarization", "description": "5. Androgen displacement assay: The androgen displacement was assessed with the Polar Screen Androgen Receptor Competitor Green Assay Kit as per the instructions of the manufacturer (Lack, Axerio-Cilies et al. 2011).\nThe ability of the above chemicals to displace DHT from the ABS site of recombinant wild type LBD was measured using a fluorescent polarization assay (PolarScreen™, Life Technologies) at various concentrations."}, "[7]": {"test_system": "endogenous wild type AR", "assay": "ARR3tk-luciferase assay in R1-AD1 cells", "format": "cell-based, human", "details": "0.1 nM R1881"}, "[8]": {"biological_target": "T3, T877A-AR mutant (Homo sapiens, UniProt P10275, T878A)", "T3 construct": "expressed in transfected cells; host or cells: PC3", "assay": "Luciferase reporter assay in PC3 cells, T877A-AR", "format": "cell-based", "details": "presence and absence of R1881", "description": "as §1"}, "[9]": {"biological_target": "T4, androgen receptor (AR) (Homo sapiens, UniProt P10275, T878A)", "T4 sequence (P10275 1-920 T878A)": "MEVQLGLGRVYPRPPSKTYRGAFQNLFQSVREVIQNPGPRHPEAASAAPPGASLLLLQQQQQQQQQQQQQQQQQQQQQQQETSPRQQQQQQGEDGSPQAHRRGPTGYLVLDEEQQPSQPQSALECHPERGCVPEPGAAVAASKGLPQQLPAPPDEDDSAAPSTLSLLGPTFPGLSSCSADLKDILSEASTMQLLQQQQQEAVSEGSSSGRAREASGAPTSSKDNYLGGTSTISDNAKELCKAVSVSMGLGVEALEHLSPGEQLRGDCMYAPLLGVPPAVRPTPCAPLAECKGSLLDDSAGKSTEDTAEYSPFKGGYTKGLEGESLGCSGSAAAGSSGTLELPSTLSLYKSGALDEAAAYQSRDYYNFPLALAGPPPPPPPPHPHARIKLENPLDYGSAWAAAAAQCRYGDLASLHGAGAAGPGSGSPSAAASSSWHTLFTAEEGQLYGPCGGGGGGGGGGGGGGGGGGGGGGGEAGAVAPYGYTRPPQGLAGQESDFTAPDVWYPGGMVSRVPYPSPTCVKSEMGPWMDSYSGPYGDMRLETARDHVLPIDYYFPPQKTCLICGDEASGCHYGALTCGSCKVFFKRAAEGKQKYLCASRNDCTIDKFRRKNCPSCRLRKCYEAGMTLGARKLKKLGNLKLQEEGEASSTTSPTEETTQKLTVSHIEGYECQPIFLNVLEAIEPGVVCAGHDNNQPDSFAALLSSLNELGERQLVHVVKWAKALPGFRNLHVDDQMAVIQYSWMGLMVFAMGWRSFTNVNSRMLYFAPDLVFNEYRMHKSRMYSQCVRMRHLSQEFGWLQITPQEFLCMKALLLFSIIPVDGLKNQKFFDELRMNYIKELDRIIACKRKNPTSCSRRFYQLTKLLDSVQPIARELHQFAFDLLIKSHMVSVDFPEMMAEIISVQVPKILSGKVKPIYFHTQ", "assay": "eGFP cellular AR transcription assay (LNCaP eGFP cells, LN-ARR2PB-eGFP)"}, "[10]": {"biological_target": "T5, full-length human AR (Homo sapiens, UniProt P10275)", "T5 construct": "expressed in transfected cells; host or cells: PC3 (AR-negative human prostate cancer cells)", "T5 sequence (P10275 1-920)": "T4 sequence (P10275 1-920 T878A) with A878T", "assay": "ARR3tk-luciferase reporter assay in PC3 cells, wild-type AR", "format": "cell-based", "description": "as §1"}, "[11]": {"biological_target": "T6, AR(1-653) truncation mutant (Homo sapiens, UniProt P10275)", "T6 construct": "host or cells: PC3 co-transfected with ARR3tk-luciferase", "details": "25 μM, PC3 cells, ARR3tk-luciferase; cited from earlier work"}}, "note": "Numbering of substitutions follows the chain as printed. pIC50: −log10 of the molar value.", "data": [{"smiles": "CNC(=O)c1ccc(N2C(=S)N(c3ccc(C#N)c(C(F)(F)F)c3)C(=O)C2(C)C)cc1F", "note": "[enzalutamide, reference compound]", "values": [{"measurement": "effect on ER transcriptional activity", "setting": "[1]", "result": "considerable cross-reactivity"}, {"measurement": "IC50 secreted PSA", "setting": "[2]", "result": "sub-micromolar"}, {"measurement": "FKBP5 protein expression, R1-D567 cells", "setting": "[3]", "result": "only affected R1-AD1 cells"}, {"measurement": "pIC50", "setting": "[4]; LNCaP eGFP cells, R1881, secreted PSA", "result": 6.92}, {"measurement": "FKBP5 protein expression, R1-AD1 cells", "setting": "[5]", "result": "only affected R1-AD1 cells"}]}, {"smiles": "COc1c(F)cccc1-c1csc(N2CCOCC2)n1", "note": "[Compound 14368]", "values": [{"measurement": "pIC50", "setting": "[6]", "result": 4.50}, {"measurement": "agonistic effect at high concentrations", "setting": "[7]", "result": "not observed"}, {"measurement": "concentration inducing transcriptional activation of T877A AR mutant", "setting": "[8]", "result": "higher than 0.4 μM"}, {"measurement": "pIC50", "setting": "[4]; Series 1", "result": 6.89}, {"measurement": "AR transcriptional activity in the absence of R1881", "setting": "[9]; LNCaP eGFP cells without R1881", "result": "vigorously enhance AR transcriptional activity"}, {"measurement": "IC50", "setting": "[9]; eGFP IC50 (μM), Series 1", "result": 0.03, "unit": "µM"}, {"measurement": "pIC50", "setting": "[9]; eGFP IC50, LNCaP eGFP cells, 0.1 nM R1881", "result": 7.46}, {"measurement": "AR transcription, wild type AR, presence of R1881", "setting": "[10]", "result": "inhibited by 14368 in a dose response manner"}, {"measurement": "AR transcriptional activity, wild type AR, absence of androgen", "setting": "[10]", "result": "only a basal level of transcriptional activity"}]}, {"smiles": "CC(C)(c1ccc(OCC(O)CO)cc1)c1ccc(OCC(O)CCl)cc1", "note": "(stereo not drawn) [EPI-001]", "values": [{"measurement": "inhibition of AR(1-653) truncation mutant", "setting": "[11]", "result": "~80", "unit": "%"}]}]}
